Literature values, collected in US11197880B2, “Use of eriocitrin compositions for increasing GLP-1 levels” (INGREDIENTS BY NATURE, LLC, priority 2019, dated 2021).

Tested on: mice (C57BL/6J)
[1] = mice (C57BL/6J), eriocitrin 140 mg/kg/day
[2] = mice supplemented with eriocitrin, previous study

Which results are given for `C[C@@H]1O[C@@H](OC[C@H]2O[C@@H](Oc3cc(O)c4c(c3)O[C@H](c3ccc(O)c(O)c3)CC4=O)[C@H](O)[C@@H](O)[C@@H]2O)[C@H](O)[C@H](O)[C@H]1O` [Eriocitrin, eriodictyol 7-O-B-rutinoside]?
inflammatory markers (IL-6 and MCP-1) [1]: decreased inflammatory markers; total antioxidant capacity [1]: increased total antioxidant capacity; blood glucose [2]: reduced blood glucose; insulin sensitivity [2]: improved insulin sensitivity
